The text below walks through data of patent US20160082071A1, “METHODS OF TREATING MYELOID LEUKEMIA” (BIOKINE THERAPEUTICS LTD., priority 2013, published 2016).

Like-named read-outs stand apart in the source and are kept apart here.

In series [1] the test system is Normal C57BL/6 female mice. The note with it: mouse, in vivo.
Method: (§1) Lyophilized 4F-benzoyl-TN14003 was manufactured by MSD N.V. The compound was dissolved with water for injection (WFI) at a final stock concentration of 25 mg/ml and stored at −20° C. until use. Before injection to the mice, 4F-benzoyl-TN14003 was thawed and diluted with PBS to final concentration of 5 mg/ml. Actual dosing solutions were prepared by diluting the 5 mg/ml stock solution (total dose including salt) in PBS just before the injection. 4F-benzoyl-TN14003 was administered at a constant dose volume of 200 μL.
(§2) Cytarabine (Cytosine arabinoside; ARA-C) was purchased from Hadassah cytotoxica pharmacy (Israel). ARA-C was provided from Hadassah cytotoxica pharmacy at concentration of 100 mg/ml. Actual dose solution (200 mg/Kg) was prepared by diluting the 100 mg/ml stock solution in PBS.
(§3) Normal C57BL/6 female mice, 9-10 week old, about 20 gram in weight, were used. The animals were kept in groups of a maximum of 10 animals in polysulphone cages (425×266×185 mm), fitted with solid bottoms and filled with wood shavings as bedding material. The animals were provided ad libitum a commercial rodent diet (Harlan Teklad™ Ra/Mouse Diet) and allowed free access to autoclaved water, supplied to each cage via polysulphone bottles with stainless steel sipper-tubes. From the first day of ARA-C dosing wet food was placed at the bottom of the cage. Ten animals were randomly allocated per treatment group.
(§4) The treatments groups were as followed (10 animals per treatment group): • Group A: untreated control. • Group B: animals administered with 4FB-TN14003 at a dose of 2.4, 4.8, 9.6 or 12 mg/Kg daily from day 1 to day 7. • Group C: animals administered with ARA-C at a dose of 200 mg/Kg daily from day 3 to 7. • Group D: animals administered with 4FB-TN14003 as in group B (at a dose of 2.4, 4.8, 9.6 or 12 mg/Kg daily from day 1 to day 7) and also with ARA-C as in group C (at a dose of 200 mg/Kg daily from day 3 to 7).
(§5) 4FB-TN14003 was injected SC at a constant dose volume of 200 μL/mouse (based on the latest determined body weight-average of 20 gr), once daily for 7 consecutive days (days 1-7). Control mice were injected with the vehicle (PBS) only under the same regimen.
(§6) ARA-C was diluted in PBS and injected SC at a constant dose of 200 mg/kg and at constant volume of 200 μL/mouse, once daily for 5 consecutive days (days 3-7). In the combination groups (groups 7-10) ARA-C was injected 4 hours following 4FB-TN14003 injection.
(§7) Blood samples were collected on day 12 of the experiment. The mice in each group were subjected to terminal bleeding from the orbital sinus. Blood samples (ca. 400-500 μl) were dispensed into special serum gel separation tubes (BD Microgard™) centrifuged at 13,000 rpm for 8 minutes at RT and saved the supernatant sera. Sera samples (at least 220 μl) were kept at 2-8° C. to complete blood counts (CBC).
The subject of the next series is human AML xenografts. Conditions: subcutaneous injections; Beider et al., Exp. Hematol. 2011; cited from earlier work.
Series [2] deals with malignant cells of hematopoietic origin including AML. The note with it: cited from earlier work.
Series [3] has as its system Normal C57BL/6 female mice. Briefly: Toxicity assay: complete blood counts in mice treated with 4F-benzoyl-TN14003, ARA-C or both.
Method: as §1, §2, §3, §4, §5, §6, §7

On to “4F-benzoyl-Arg-Arg-Nal-Cys-Tyr-Cit-Lys-DLys-Pro-Tyr-Arg-Cit-Cys-Arg-NH2 [4F-benzoyl-TN14003]”, for which, in series [1], the hematocrit result is listed as “did not cause a reduction”, the “hemoglobin (HGB)” value is on record as “did not cause a reduction”, the “lymphocyte Abs” value was “did not cause a reduction” and the platelets result is recorded as “did not cause a reduction”. For the same compound, in series [1], the “red blood-cells (RBC)” value was “did not cause a reduction”. In addition, in the series on human AML xenografts, the “growth of human AML xenografts” value is given as “significantly reduced”. In series [2], the “cytotoxicity toward malignant cells of hematopoietic origin including AML” value is “CXCR4-dependent preferential cytotoxicity”.
As for `Nc1ccn([C@@H]2O[C@H](CO)[C@@H](O)[C@@H]2O)c(=O)n1` [ARA-C, Cytarabine], the levels of platelets result in series [3] (ARA-C alone versus ARA-C in combination with 4F-benzoyl-TN14003, FIG. 5) is “equally reduced levels”. Moreover, the “levels of neutrophil Abs” value in series [3] (ARA-C alone versus ARA-C in combination with 4F-benzoyl-TN14003, FIG. 7) is recorded as “equally reduced levels”. Moreover, the “white blood-cells (WBC)” value in series [3] (compared with untreated control, blood collected day 12 (five days after treatment), ARA-C 200 mg/Kg SC days 3-7, 4F-benzoyl-TN14003 2.4, 4.8, 9.6 or 12 mg/Kg SC days 1-7, FIG. 1) was “drastic reduction”. Moreover, in series [3] (compared with untreated control, blood collected day 12, FIG. 2), the “red blood-cells (RBC)” value is “drastic reduction”. In addition, the hematocrit result in series [3] (compared with untreated control, blood collected day 12, FIG. 3) is recorded as “drastic reduction”. Also, in series [3] (compared with untreated control, blood collected day 12, FIG. 4), the “hemoglobin (HGB)” value is on record as “drastic reduction”. Besides, the platelets entry in series [3] (compared with untreated control, blood collected day 12, FIG. 5) was “drastic reduction”. In addition, in series [3] (compared with untreated control, blood collected day 12, FIG. 6), the “lymphocyte Abs” value was “drastic reduction”. In series [3] (compared with untreated control, blood collected day 12, FIG. 7), the “neutrophil Abs” value is on record as “drastic reduction”.
